In patent US20210388012A1, “METHODS AND COMPOSITIONS FOR PRODRUG FORMS OF SPECTINOMYCIN AND SPECTINAMIDE ANALOGS” (priority 2018, published 2021):

Assays:
in vitro = in vitro ADME; conditions: human plasma, 37° C., read-out: Plasma Stability (Human) t½ (converted)
Description: (§1) LC-MS Method 2. Chromatographic separation was performed on an Acquity UPLC BEH C18 1.7 μm, 2.1×50 mm column (Waters Corporation, Milford, Mass.) or a Luna Omega 1.6 μm C18, 2.1×50 mm column (Phenomenex, Torrance, Calif.) using an Acquity ultra performance liquid chromatography system. Data were acquired using Masslynx v. 4.1 and analyzed using the Openlynx software suite. This was coupled to an Acquity photodiode array detector, which acquired UV data from 210-400 nm. The flow was then split, with half directed to an evaporative light scattering detector (ELSD) and half to an SQ mass spectrometer. The total flow rate was 1 mL/min. The sample injection volume was 10 μL. The UPLC column was maintained at 60° C. and the gradient program with either basic mobile phase (A1, 10 mM ammonium bicarbonate in MilliQ H2O; B1, 0.1% formic acid in acetonitrile) or formic mobile phase (A1, 0.1% formic acid in MilliQ H2O; B1, 0.1% formic acid in acetonitrile) based on the compounds' physical and chemical properties. The mass spectrometer was operated in positive-ion mode with electrospray ionization. The conditions were as follows; capillary voltage 3.4 kV, cone voltage 30 V, source temperature 130° C., desolvation temperature 400° C., desolvation gas 800 L/hr, cone gas 100 L/hr. A full scan range from m/z=110-1000 in 0.2 s was used to acquire MS data. The ELSD-drift tube temperature was set at 52° C.
Plasma stability was determined after incubation in human plasma for various incubation time, i.e., incubation times of 0, 3, 24, and 48 hour were used. DMSO stock solutions of test compounds were prepared at 10 mM concentration. 1.8 μL of each test compound was each added directly to 1.8 mL of human plasma to get the final concentration of 10 μM. This compound/matrix was mixed and 70 μL was transferred to 4 time points plates (each in triplicate wells). […] The plasma stability was evaluated via the half-life from least-squares fit of the multiple time points based on first-order kinetics.

[1] = Metabolic stability, human liver microsomal degradation; assay type: in vitro ADME; conditions: human liver microsomes; read-out: Metabolic Stability (Human) t½ (converted)
Description: as §1
The stability of compounds to human liver microsomal degradation, i.e., metabolic stability, was determined as described previously (see North, E. J., et al, Bioorg. Med. Chem. (2013) 21(9):2587-2599) and the rate of degradation was monitored by LC-MS analysis using multiple sampled time points as described herein above in LC-MS Method 2. Metabolic stability was evaluated via the half-life from least squares fit of the concentration remaining at the time points based on first-order kinetics.

[2] = Single ascending maximum tolerated dose study in rat; assay type: in vivo; conditions: female Sprague-Dawley rats
Description: Several compounds were assessed in single ascending maximum tolerated studies. The compounds assessed were 1810; 3408, a prodrug form of compound 1810; 1599, a chloro homologue of compound 1810; and gentamicin, an antimicrobial associated with ototoxicity. The study was carried out in female Sprague-Dawley rats (n=3 per group). All the drug solutions were prepared in water and PLASMA-LYTE A (50:50; […] was obtained from Baxter Healthcare Corporation, Deerfield, Ill.). Each group of rats were fasted overnight with access to water aJ libitum and a fixed volume (2 mL) of drug-containing solution was administered via the jugular vein catheter. Food was withheld for 3 h post dosing. Different phases of the study were classified on five different speeds of i.v, administration; Phase 1: 5 sec, Phase 2: 30 sec, Phase 3: 5 min, Phase 4: 15 min, Phase 5: 30 min. In the first and second phases, a set of predefined dose levels: 10, 25, 50, 75, 100, 150, 300, 350, 400, 450 and 500 mg/kg. Escalation to the next higher dose was conditional upon absence of signs of acute toxicity following the immediate lower dose over a 24 h period. All animals were monitored by visual inspection focused on focus on changes in skin, fur, eyes, and also respiratory, circulatory, autonomic and central nervous systems, along with somatomotor activity and behavior pattern, including tremors, convulsions, salivation, diarrhea, lethargy, sleep and coma. A dose level was deemed an MTD if […] of acute toxicity were observed and that dose was chosen for the second phase of the study where the process was repeated to determine a toxic dose. For third, fourth and fifth phases, dosing solution was infused by a Instech tethering system (Instech Laboratories Inc., Plymouth Meeting, Pa.) where the animal is freely moving within its cage, the catheter connection is held in place by a vascular access harness and a swivel system, and the drug administration is performed via a Harvard Apparatus programmable syringe pump. After dosing, the tether was removed immediately after completion of the infusion and the catheter was flushed with (100 μL) PlasmaLyte A. Surviving animals from the previous dose with no signs of toxicity were re-used in either phases of these studies upon allowing a one day drug washout period.

## CCOP(=O)(OCC)Oc1ccc(CC(=O)N[C@@H]2C[C@@H](C)O[C@H]3O[C@@H]4[C@@H](O)[C@H](NC)[C@H](O)[C@H](NC)[C@H]4O[C@]32O)nc1 [Compound 3906, Diethyl (6-(2-oxo-2-(((2R,4R,4aS, 5aR,6S,7S,8R,9S,9aR,10aS)-4a,7,9-trihydroxy-2-methyl-6,8-bis(methylamino)decahydro-2H-benzo[b]pyrano[2,3-e][1,4]dioxin-4-yl)amino)ethyl)pyridin-3-yl) phosphate]
In vitro
  half-life at 10 µM: 19.5 h
[1]
  half-life: 3.61 h

## CN[C@@H]1[C@H](O)[C@H](NC)[C@H]2O[C@]3(O)[C@H](O[C@@H]2[C@H]1O)O[C@H](C)C[C@@]3(O)CNCc1ccc(F)c(OP(=O)(O)O)c1 [Compound 3959, 2-fluoro-5-(((((2R,4R,4aS,5aR,6S,7S,8R,9S,9aR,10aS)-4,4a,7,9-tetrahydroxy-2-methyl-6,8-bis(methylamino)decahydro-2H-benzo[b]pyrano[2,3-e][1,4]dioxin-4-yl)methyl)amino)methyl)phenyl dihydrogen phosphate]
[1]
  half-life: 1.84 h

## CN[C@@H]1[C@H](O)[C@H](NC)[C@H]2O[C@]3(O)[C@H](O[C@@H]2[C@H]1O)O[C@H](C)C[C@H]3NC(=O)Cc1ccc(-c2ccc(OP(=O)(O)O)cc2)cn1 [Compound 4074, 4-(6-(2-oxo-2-(((2R, 4R, 4aS, 5aR, 6S, 7S, 8R, 9S, 9aR, 10aS)-4a,7,9-trihydroxy-2-methyl-6,8-bis(methyl-amino)decahydro-2H-benzo[b]pyrano[2,3-e][1,4]dioxin-4-yl)amino)ethyl)pyridin-3-yl)phenyl dihydrogen phosphate]
In vitro
  half-life at 10 µM: < 0.0833 h
[1]
  half-life: 2.98 h

## gentamicin [reference compound]
[2]; 5 second IV bolus
  MTD: 100 mg/kg
[2]; 30 second IV bolus
  MTD: 100 mg/kg
[2]; 5 minute IV infusion
  MTD: 200 mg/kg
[2]; 15 minute IV infusion
  MTD: 300 mg/kg
[2]; 30 minute IV infusion
  MTD: 400 mg/kg
